Test results from paper PMC5906549, “Cathelicidin-Derived Antimicrobial Peptides Inhibit Zika Virus Through Direct Inactivation and Interferon Pathway” (Frontiers in Immunology, 2018).
Peptide text beside a SMILES is read from it.

Test system: ZIKV strain MR766
Test: Extracellular ZIKV RNA in supernatants of infected human fetal astrocytes (real-time RT-PCR)
Type: cell-based, Zika virus
Settings: ZIKV MOI 0.5, 48 h, cell-free supernatants
Method: Total mRNA was isolated with TRIzol Reagent (Thermo Fisher Scientific) and RNeasy Mini Kit (QIAGEN Inc., Valencia, CA, USA) following the manufacturer’s recommendations. Two real-time RT-PCR methods were used for the current studies. First, SYBR Green-based RT-PCR assay was used to determine intracellular ZIKV RNA in Vero cells. For this assay, reverse transcription was performed using Verso cDNA synthesis Kit (Thermo Fisher Scientific) and 1 µg of total RNA in a 15-µL final volume. The RT-PCR analyses were performed using 7.5-µL SYBR Green PCR Master Mix (Thermo Fisher Scientific) with 0.5-µL cDNA, 1.5-µL H2O, 5.5-µL oligonucleotide primer pairs at 10 µM. […] GG-3. PCR program: 1, 50°C for 2 min; 2, 95°C for 2 min; 3, 95°C for 15 s; 4, specific annealing temperature for 15 s; 5, 72°C for 1 min. Steps 2–4 were repeated 40 times. All samples were amplified in triplicate for analysis. Relative ZIKV RNA levels were determined and standardized with a GAPDH internal control using comparative ΔΔCT method ([35]). Second, TaqMan-based RT-PCR assay was used to determine intracellular ZIKV RNA and other gene expressions in Figures 3–6 and extracellular ZIKV RNA in Figure 3. The TaqMan assay was performed in a StepOne^TM Real-Time PCR system (Thermo Fisher Scientific). Primers used for TaqMan real-time RT-PCR were all from the Thermo Fisher Scientific, which included ZIKV (forward sequence: 5-[…]-3, reverse sequence: 5- […]-3, and probe sequence: 5′-[…]-3), IFN-α2 (Hs00265051_s1), IFN-β1 (Hs01077958_s1), eukaryotic 18-s rRNA (Hs99999901_s1), β-actin (Hs99999903_m1), and GAPDH (Catalog number: 4310884E). Relative ZIKV mRNA levels were determined and standardized with a GAPDH or 18-s rRNA endogenous control using comparative ΔΔCT method ([35]). […] Quantitative genomic RNA from ZIKV (NR-1838DQ, ATCC) was used as a standard to calculate viral copies.
(A) Human fetal astrocytes were treated with doses of the selected peptides ranging from 1 to 50 µM. […] Cell viability was determined by a colorimetric MTS assay. […] Data were analyzed by nonlinear regression and assessed the EC50 for each of the antimicrobial peptides. […] At the experimental endpoint, intracellular ZIKV RNA (B) was determined through real-time RT-PCR in total cellular RNA. […] Extracellular ZIKV RNA [(C), in log scale] was determined through real-time RT-PCR using total RNA isolated from cell-free supernatants. ZIKV virion levels (in log scale) were determined by adding cell-free culture supernatants to Vero cells and overlaid with Agar gel in viral PFA (D). Viral plaques were manually counted and calculated as PFU/mL (E). * p < 0.05, ** p < 0.01, and *** p < 0.001, as compared with the ZIKV group without peptide treatment (ANOVA, N = 3).

Compound | Extracellular ZIKV RNA in culture supernatants, reduced to % of untreated (peptide 2 µM) [%] | Extracellular ZIKV RNA in culture supernatants, reduced to % of untreated (peptide 10 µM) [%]
CC[C@H](C)[C@H](NC(=O)[C@H](CCCCN)NC(=O)[C@H](CCCCN)NC(=O)[C@H](Cc1ccccc1)NC(=O)[C@H](CC(C)C)NC(=O)[C@H](CCCCN)NC(=O)[C@H](CCCCN)NC(=O)[C@H](Cc1ccccc1)NC(=O)[C@H](CCCCN)NC(=O)[C@H](CCCCN)NC(=O)[C@H](CCCNC(=N)N)NC(=O)[C@H](Cc1ccccc1)NC(=O)[C@H](CCCNC(=N)N)NC(=O)[C@H](CCCCN)NC(=O)[C@H](Cc1ccccc1)NC(=O)[C@H](CCCNC(=N)N)NC(=O)CN)C(=O)N[C@@H](CO)C(=O)O [BMAP-18] (H-GRFKRFRKKFKKLFKKIS-OH; N-terminus and C-terminus assumed) | 5.6 | 1.3
CC[C@H](C)[C@H](NC(=O)[C@H](CCCNC(=N)N)NC(=O)[C@H](CCC(N)=O)NC(=O)[C@@H](NC(=O)[C@@H](NC(=O)[C@H](CCCNC(=N)N)NC(=O)[C@H](CCCCN)NC(=O)[C@H](Cc1ccccc1)NC(=O)CN)[C@@H](C)CC)C(C)C)C(=O)N[C@@H](CCCCN)C(=O)N[C@@H](CC(=O)O)C(=O)N[C@@H](Cc1ccccc1)C(=O)N[C@@H](CC(C)C)C(=O)N[C@@H](CCCNC(=N)N)C(=O)N[C@@H](CC(N)=O)C(=O)N[C@@H](CC(C)C)C(=O)N[C@H](C(N)=O)C(C)C [GF-17] (H-GFKRIVQRIKDFLRNLV-NH2; N-terminus and C-terminus assumed) | 16.7 | 0.1
